The NIST ThermoML archive (doi:10.1016/j.jct.2011.04.023)
Numbers after ± are expanded uncertainties.

Legend:
[1] = Crystal; visual observation
[2] = Molar enthalpy of transition or fusion; conditions: Crystal; DSC

Normal melting temperature [1]: 56.2 ± 0.4 °C
Molar enthalpy of transition or fusion [2]: 10.1 ± 0.34 kJ/mol
Structure (SMILES): CCCCCC[n+]1cccc(C)c1.Cc1ccc(S(=O)(=O)[O-])cc1 [1-hexyl-3-methylpyridinium 4-methylbenzenesulfonate]
